Reference: patent US6576422B1, “Method for identifying products employing gene expression” (Rohm and Haas Company, priority 2000, dated 2003)

Legend:
L57 cells = assay: Insect cell-based marker ligand assay (EcR gene switch, β-galactosidase reporter), L57 cells; details: Drosophila melanogaster, 48 h, read-out: L57 Cells (Fold Induction)
BRL-AG2 cells = assay: Insect cell-based marker ligand assay (EcR gene switch, β-galactosidase reporter), BRL-AG2 cells; details: 48 h
[1] = read-out: BRL-AG2 (Fold Induction)
[2] = read-out: BRL-AG2 Cells (Fold Induction)

Compound COc1cccc(C(=O)NN(C(=O)c2cc(C)cc(C)c2)C(C)(C)C)c1C [Marker, N′-tert-butyl-N′-(3 ,5-dimethylbenzoyl)-3-methoxy-2-methylbenzohydrazide] has a fold induction at 0.07 µg/mL (L57 cells) of 27, a fold induction at 0.12 µg/mL (L57 cells) of 1 and a fold induction at 0.69 µg/mL (L57 cells) of 46. For the same compound, the fold induction at 1.2 µg/mL (L57 cells) was 23, the fold induction at 6.95 µg/mL (L57 cells) was 63 and the fold induction at 12 µg/mL (L57 cells) was 30. For the same compound, the fold induction at 0.12 µg/mL (BRL-AG2 cells; [1]) was 16, the fold induction at 1.2 µg/mL (BRL-AG2 cells; [1]) was 21 and the fold induction at 12 µg/mL (BRL-AG2 cells; [1]) was 31. For the same compound, the fold induction at 0.07 µg/mL (BRL-AG2 cells; [2]) was 151, the fold induction at 0.69 µg/mL (BRL-AG2 cells; [2]) was 182 and the fold induction at 6.95 µg/mL (BRL-AG2 cells; [2]) was 202.
